Results reported in ChEMBL document CHEMBL1127981, “Novel ether derivatives of alkyl piperidines as potential sigma / 5HT2 antipsychotic agents” (Bioorg Med Chem Lett, 1994).
pKi: −log10 of the molar value.

Key:
[1] = biological target: Serotonin 2 (5-HT2) receptor (Homo sapiens, UniProt P41595+P28223+P28335); assay: Binding affinity towards 5-HT2 receptor using [3H]ketanserin as radioligand; assay type: protein assay
[2] = biological target: Sigma non-opioid intracellular receptor 1 (Homo sapiens, UniProt Q99720); assay: Binding affinity towards sigma receptor using [3H](+)-SKF-10047 as radioligand
[3] = In vivo potency was determined in anti-mescaline scratch assay(peroral administration); assay type: functional, organism-based
[4] = biological target: D(2) dopamine receptor (Homo sapiens, UniProt P14416); assay: Binding affinity towards Dopamine receptor D2 using [3H]spiperone as radioligand
D(2) dopamine receptor, sequence (P14416 whole entry): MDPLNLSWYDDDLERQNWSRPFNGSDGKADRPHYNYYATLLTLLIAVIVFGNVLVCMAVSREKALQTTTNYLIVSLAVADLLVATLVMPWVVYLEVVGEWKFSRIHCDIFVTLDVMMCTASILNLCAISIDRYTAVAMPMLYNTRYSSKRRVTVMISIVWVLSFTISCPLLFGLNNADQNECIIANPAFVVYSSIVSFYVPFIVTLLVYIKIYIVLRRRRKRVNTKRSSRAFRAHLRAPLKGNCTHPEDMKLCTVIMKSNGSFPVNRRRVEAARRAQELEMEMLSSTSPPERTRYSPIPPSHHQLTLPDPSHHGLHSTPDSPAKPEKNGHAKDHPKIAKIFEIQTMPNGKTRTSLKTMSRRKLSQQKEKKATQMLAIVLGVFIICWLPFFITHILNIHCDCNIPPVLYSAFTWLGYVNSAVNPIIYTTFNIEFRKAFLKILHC

Sigma non-opioid intracellular receptor 1, sequence (Q99720 whole entry): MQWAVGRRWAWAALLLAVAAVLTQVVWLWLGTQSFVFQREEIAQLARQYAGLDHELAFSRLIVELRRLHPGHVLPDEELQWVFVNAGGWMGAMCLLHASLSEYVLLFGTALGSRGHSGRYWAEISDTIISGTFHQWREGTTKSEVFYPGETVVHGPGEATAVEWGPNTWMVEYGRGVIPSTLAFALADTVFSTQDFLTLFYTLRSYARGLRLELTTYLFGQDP

Row | Ki [1] | pKi [2] | ED50 [3] | pKi [4] | SMILES
1 | 29 nM | 7.66 | > 30 mg/kg | 6.21 | C(COCC1CCN(Cc2ccccc2)CC1)=C(c1ccccc1)c1ccccc1
2 | 31 nM | 7.92 | 8 mg/kg | 5.66 | Fc1ccc(/C=C/COCC2CCN(Cc3ccccc3)CC2)cc1
3 | 44 nM | 8.15 | 6 mg/kg | < 5.00 | C(=C\c1ccccc1)/COCC1CCN(Cc2ccccc2)CC1
4 | 254 nM | 8.40 | > 30 mg/kg | < 5.00 | C(#Cc1ccccc1)COCC1CCN(Cc2ccccc2)CC1
5 | 180 nM | 7.57 | > 30 mg/kg | 6.26 | c1ccc(CCCOCC2CCN(Cc3ccccc3)CC2)cc1
6 | > 10000 nM | 7.05 | – | < 5.00 | C(=C/c1ccccc1)/COCC1CCN(Cc2ccccc2)CC1

The remaining lines, values behind:

Row | SMILES | Ki [1] | pKi [2] | ED50 [3] | pKi [4]
7 | C(#Cc1ccccc1)COCCC1CCN(CC2CC2)CC1 | 947 nM | 9.00 | > 10 mg/kg | < 5.00
8 | Fc1ccc(CCN2CCC(CCOCC#Cc3ccccc3)CC2)cc1 | 85 nM | 7.74 | 3.6 mg/kg | 5.74
9 | C(#Cc1ccccc1)COCCC1CCN(CCc2ccccc2)CC1 | 21 nM | 8.15 | 4.1 mg/kg | 6.88
10 | C(/C=C/c1ccccc1)=C\OCC1CCN(Cc2ccccc2)CC1 | 547 nM | 6.67 | – | < 5.00
11 | C(=C\c1ccccc1)/COCC1CCN(CCc2ccccc2)CC1 | 250 nM | 8.30 | > 5 mg/kg | 6.62
12 | C(=C\c1ccccc1)/COCC1CCN(CC2CC2)CC1 | 1847 nM | 8.30 | > 30 mg/kg | < 5.00
13 | C(#Cc1ccccc1)COC1CCN(CCc2ccccc2)CC1 | 72 nM | 8.40 | > 10 mg/kg | 5.87
14 | C/C=C/CN1CCC(COC/C=C/c2ccccc2)CC1 | 650 nM | 8.10 | > 30 mg/kg | < 5.00
15 | Fc1ccc(C#CCOCCC2CCN(CCc3ccccc3)CC2)cc1 | 81 nM | 8.70 | > 10 mg/kg | 5.97
16 | C(=C\c1ccccc1)/COCC1CCN(Cc2cccc3ccccc23)CC1 | 284 nM | 8.10 | > 10 mg/kg | < 5.00
17 | C(=C\c1ccccc1)/COCC1CCN(CCCc2ccccc2)CC1 | 283 nM | 7.74 | 9 mg/kg | 6.02
18 | FC(F)(F)c1ccc(/C=C/COCC2CCN(Cc3ccccc3)CC2)cc1 | 324 nM | 7.55 | > 10 mg/kg | 5.36
